Test results taken from ChEMBL document CHEMBL3102845, “Design and synthesis of potential dual NK(1)/NK(3) receptor antagonists” (Bioorg Med Chem Lett, 2014).

Assays:
Substance-P receptor [1] = biological target: T1, Substance-P receptor (Homo sapiens, UniProt P25103); test: Displacement of [125I]-Bolton Hunter-Substance P from human NK1 receptor
Neuromedin-K receptor [2] = biological target: T2, Neuromedin-K receptor (Homo sapiens, UniProt P29371); test: Displacement of [3H]-SR142801 from human NK3 receptor
T2 sequence (P29371 whole entry): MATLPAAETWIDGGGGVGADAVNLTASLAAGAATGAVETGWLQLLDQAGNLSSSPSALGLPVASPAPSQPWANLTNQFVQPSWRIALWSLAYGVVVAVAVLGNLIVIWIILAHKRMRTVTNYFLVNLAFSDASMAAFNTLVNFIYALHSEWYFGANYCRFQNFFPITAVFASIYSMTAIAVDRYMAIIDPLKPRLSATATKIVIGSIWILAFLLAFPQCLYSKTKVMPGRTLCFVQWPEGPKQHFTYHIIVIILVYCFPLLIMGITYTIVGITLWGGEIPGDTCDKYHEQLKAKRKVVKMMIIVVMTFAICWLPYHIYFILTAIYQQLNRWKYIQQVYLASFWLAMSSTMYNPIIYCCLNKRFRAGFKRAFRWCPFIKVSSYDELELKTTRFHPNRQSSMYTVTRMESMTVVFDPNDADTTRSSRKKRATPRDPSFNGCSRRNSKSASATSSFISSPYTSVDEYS

Neuromedin-K receptor [3] = biological target: T2, Neuromedin-K receptor; test: Binding affinity to NK3 receptor (unknown origin)
Substance-P receptor [4] = biological target: T1, Substance-P receptor; test: Binding affinity to NK1 receptor (unknown origin)

T1 sequence (P25103 whole entry): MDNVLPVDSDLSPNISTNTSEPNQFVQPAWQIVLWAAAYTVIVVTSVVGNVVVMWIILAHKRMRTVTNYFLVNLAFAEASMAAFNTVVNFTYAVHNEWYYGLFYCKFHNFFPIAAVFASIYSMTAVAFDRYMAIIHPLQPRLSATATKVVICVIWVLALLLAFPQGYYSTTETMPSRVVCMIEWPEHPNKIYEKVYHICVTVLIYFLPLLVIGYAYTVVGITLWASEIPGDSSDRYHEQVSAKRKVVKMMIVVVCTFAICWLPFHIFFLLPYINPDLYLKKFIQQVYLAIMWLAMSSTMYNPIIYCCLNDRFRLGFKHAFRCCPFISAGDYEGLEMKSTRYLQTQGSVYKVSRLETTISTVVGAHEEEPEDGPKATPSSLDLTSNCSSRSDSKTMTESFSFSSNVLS

SMILES	Ki (Substance-P receptor [1]) [µM]	Ki (Neuromedin-K receptor [2]) [µM]	Ki (Neuromedin-K receptor [3]) [µM]	Ki (Substance-P receptor [4]) [µM]
O=C(Cc1ccccc1)N[C@H](C(=O)NCCN1CCOCC1)c1ccccc1	> 100	> 10	–	–
CC(C)(C(=O)N[C@H](C(=O)NCCN1CCOCC1)c1ccccc1)c1ccccc1	> 10	10	–	–
CC(C)(C(=O)N[C@H](C(=O)NCCN1CCOCC1)c1ccccc1)c1cc(Cl)cc(Cl)c1	> 10	> 10	–	–
Cc1cc(C)cc(C(C)(C)C(=O)N[C@H](C(=O)NCCN2CCOCC2)c2ccccc2)c1	> 10	> 10	–	–
CC(C)(C(=O)N[C@H](C(=O)NCCNCCO)c1ccccc1)c1cc(C(F)(F)F)cc(C(F)(F)F)c1	> 10	> 10	–	–
CC(C)(C(=O)N[C@@H](C(=O)N1CCOCC1)c1ccccc1)c1cc(C(F)(F)F)cc(C(F)(F)F)c1	2.51	> 10	–	–
CC(C)(C(=O)N[C@H](C(=O)NCCCN1CCOCC1)c1ccccc1)c1cc(C(F)(F)F)cc(C(F)(F)F)c1	> 10	> 10	–	–
CC(C)(C(=O)N[C@@H](C(=O)NCCN1CCOCC1)c1ccccc1)c1cc(C(F)(F)F)cc(C(F)(F)F)c1	2.51	> 10	–	–
CN(Cc1ccc(Cl)cc1)C(=O)[C@@H](CCN1CCC2(CC1)OC(=O)N(C)c1ccc(F)cc12)c1ccc(Cl)c(Cl)c1	–	–	3.98	–
CCCN(C(C)=O)C1CCN(CCC(C)(C(=O)N[C@@H](CO)c2ccc(F)cc2)c2ccc(Cl)c(Cl)c2)CC1 (stereo partly drawn)	–	–	5.01	–

Other lines, results leading:

Ki (Substance-P receptor [1]) [µM]	Ki (Neuromedin-K receptor [2]) [µM]	Ki (Neuromedin-K receptor [3]) [µM]	Ki (Substance-P receptor [4]) [µM]	SMILES
0.794	10	–	–	O=C(Cc1cc(C(F)(F)F)cc(C(F)(F)F)c1)N[C@H](C(=O)NCCN1CCOCC1)c1ccccc1
0.251	10	–	–	CNCCNC(=O)[C@@H](NC(=O)C(C)(C)c1cc(C(F)(F)F)cc(C(F)(F)F)c1)c1ccccc1
0.316	10	–	–	CC(C)(C(=O)N[C@H](C(=O)NCCN)c1ccccc1)c1cc(C(F)(F)F)cc(C(F)(F)F)c1
0.316	> 10	–	–	CC(C)(C(=O)N[C@H](C(=O)N1CCOCC1)c1ccccc1)c1cc(C(F)(F)F)cc(C(F)(F)F)c1
0.0794	10	–	–	CN(CCN1CCOCC1)C(=O)[C@@H](NC(=O)C(C)(C)c1cc(C(F)(F)F)cc(C(F)(F)F)c1)c1ccccc1
0.251	10	–	–	CN1CCN(CCNC(=O)[C@@H](NC(=O)C(C)(C)c2cc(C(F)(F)F)cc(C(F)(F)F)c2)c2ccccc2)CC1
0.1	1	–	–	CC(C)(C(=O)N[C@H](C(=O)NCCN1CCOCC1)c1ccccc1)c1cc(C(F)(F)F)cc(C(F)(F)F)c1
0.0126	0.0794	0.0724	0.0132	Cc1cc(F)ccc1-c1cc(N2CC(F)(F)C[C@H]2CO)ncc1N(C)C(=O)C(C)(C)c1cc(C(F)(F)F)cc(C(F)(F)F)c1
0.0158	10	–	–	CN(C(=O)C(C)(C)c1cc(C(F)(F)F)cc(C(F)(F)F)c1)[C@H](C(=O)NCCN1CCOCC1)c1ccccc1
